# In publication PMC13397736, “LEP-AD: language embedding of proteins and attention to drugs predicts drug-target interactions” (Journal of Cheminformatics, 2026):
# Target: Src kinase (Homo sapiens, UniProt P12931)
# Experiment: ADP-Glo kinase assay, […] Src, […] ATP, peptide substrate
# Chain of Src kinase (P12931 2-536): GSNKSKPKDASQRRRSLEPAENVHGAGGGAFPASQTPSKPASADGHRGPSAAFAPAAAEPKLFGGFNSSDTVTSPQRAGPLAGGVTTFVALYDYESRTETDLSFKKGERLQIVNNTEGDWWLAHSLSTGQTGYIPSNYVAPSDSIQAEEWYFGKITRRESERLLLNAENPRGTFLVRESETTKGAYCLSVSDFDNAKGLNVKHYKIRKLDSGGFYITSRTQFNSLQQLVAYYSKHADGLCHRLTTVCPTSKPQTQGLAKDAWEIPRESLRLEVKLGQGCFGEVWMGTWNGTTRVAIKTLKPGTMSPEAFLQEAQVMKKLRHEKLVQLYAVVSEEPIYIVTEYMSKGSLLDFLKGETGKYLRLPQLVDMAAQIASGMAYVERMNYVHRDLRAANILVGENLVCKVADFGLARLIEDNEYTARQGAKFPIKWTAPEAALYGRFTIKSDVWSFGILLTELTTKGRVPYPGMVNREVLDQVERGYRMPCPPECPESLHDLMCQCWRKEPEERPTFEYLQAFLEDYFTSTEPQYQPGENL
structure (smiles),measurement,value
Cc1nc(Nc2ncc(C(=O)Nc3cc(NC(=O)c4cccc(C(F)(F)F)c4)ccc3C)s2)cc(N2CCN(CCO)CC2)n1 [UM-164],IC50,323 nM
